Laboratory results from ChEMBL document CHEMBL5584333, “Evo312: An Evodiamine Analog and Novel PKCβI Inhibitor with Potent Antitumor Activity in Gemcitabine-Resistant Pancreatic Cancer” (J Med Chem, 2024).
Active and inactive are the calls of the source. The rule behind the calls is not given here.

Key:
PANC-1 [1] = test: Cytotoxicity against human PANC-1 cells assessed as inhibition of cell growth incubated for 72 hrs by SRB assay; format: functional, cell-based; details: PANC-1, 72 h
[2] = Cytotoxicity against human MRC5 cells assessed as inhibition of cell growth incubated for 72 hrs by SRB assay; format: toxicity, cell-based
[3] = Cytotoxicity against HPDE6c7 cells assessed as inhibition of cell growth incubated for 72 hrs by SRB assay; format: toxicity, cell-based; details: human
[4] = test system: Gemcitabine-resistant PANC-1; test: Cytotoxicity against human Gemcitabine-resistant PANC-1 cells assessed as inhibition of cell growth incubated for 72 hrs by SRB assay; format: functional, cell-based; details: Gemcitabine-resistant PANC-1, 72 h
[5] = target: T1, Protein kinase C beta type (Homo sapiens, UniProt P05771); test: Inhibition of recombinant full length N-terminal GST-tagged human PKCbeta1 expressed in baculovirus infected Sf9 insect cells using ERMRPRKRQGSVRRRV as substrate incubated for 60 mins in presence of ATP by ADP-glo reagent based luminometric analysis
[6] = Selectivity ratio of IC50 for cytotoxicity against human Gemcitabine-resistant PANC-1 cells assessed as inhibition of cell growth to IC50 for cytotoxicity against human PANC-1 cells assessed as inhibition of cell growth; format: functional
PANC-1 [7] = test: Antiproliferative activity against human PANC-1 cells transfected with Myc-DDK tagged pCMV6-PKCbeta1 assessed as reduction in cell viability at 1.25 to 40 uM incubated for 72 hrs by MTT assay; format: functional, cell-based; details: dose 1.25-40 µM
PANC-1 [8] = test: Antiproliferative activity against human PANC-1 cells transfected with PKCbeta1 siRNA assessed as reduction in cell viability at 1.25 to 40 uM incubated for 72 hrs by MTT assay; format: functional, cell-based; details: dose 1.25-40 µM
[9] = test system: Gemcitabine-resistant PANC-1; test: Antitumor activity against human Gemcitabine-resistant PANC-1 cells xenografted in male BALB/c nude mouse assessed as reduction in tumor growth at 10 mg/kg, ip administered three times in a week for 20 days relative to control; format: functional; set-up: scale not given: the % may be the effect or the level left; details: time 20 day
[10] = test system: Gemcitabine-resistant PANC-1; test: Antitumor activity against human Gemcitabine-resistant PANC-1 cells xenografted in male BALB/c nude mouse assessed as reduction in tumor growth at 5 mg/kg, ip administered three times in a week for 20 days; format: functional, organism-based; details: time 20.0 day
[11] = target: T1, Protein kinase C beta type; test: Binding affinity to PKCbeta1 in human Gemcitabine-resistant PANC-1 cells at 10 uM incubated for 1 hrs by streptavidin-biotin pull down assay; format: cell-based
Target sequence in this assay (P05771 2-671 limits assumed): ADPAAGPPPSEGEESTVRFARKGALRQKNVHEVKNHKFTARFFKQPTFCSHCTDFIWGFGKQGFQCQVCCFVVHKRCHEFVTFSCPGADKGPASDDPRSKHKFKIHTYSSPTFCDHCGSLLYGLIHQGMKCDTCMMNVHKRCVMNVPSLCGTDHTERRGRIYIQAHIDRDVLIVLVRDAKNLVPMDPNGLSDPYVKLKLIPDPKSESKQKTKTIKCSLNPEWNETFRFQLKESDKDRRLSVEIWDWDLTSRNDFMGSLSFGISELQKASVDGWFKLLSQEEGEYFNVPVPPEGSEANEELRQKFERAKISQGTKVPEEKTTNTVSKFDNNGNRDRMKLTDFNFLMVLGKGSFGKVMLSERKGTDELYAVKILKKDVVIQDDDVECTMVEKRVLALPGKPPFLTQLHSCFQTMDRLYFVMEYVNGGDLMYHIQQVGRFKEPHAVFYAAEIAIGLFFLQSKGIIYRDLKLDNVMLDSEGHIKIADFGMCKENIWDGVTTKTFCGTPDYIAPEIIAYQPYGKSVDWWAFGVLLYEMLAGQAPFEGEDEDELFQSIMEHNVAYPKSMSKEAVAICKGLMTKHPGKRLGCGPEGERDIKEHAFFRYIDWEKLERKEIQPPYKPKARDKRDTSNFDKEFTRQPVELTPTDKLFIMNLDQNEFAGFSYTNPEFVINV

SMILES	IC50 (PANC-1 [1]) [µM]	IC50 at 72 h [2] [µM]	other results
CCCn1c2c(c3ccccc31)CCN1C(=O)c3ccccc3N(C)[C@H]21	38.4	> 50	
O=C1c2ccccc2N[C@@H]2c3[nH]c4ccccc4c3CCN12	> 50	> 50	
CN1c2ccccc2C(=O)N2CCc3c(n(Cc4ccc(Cl)cc4)c4ccccc34)[C@H]21	44	> 50	
C=CCOc1ccc2[nH]c3c(c2c1)CCN1C(=O)c2ccccc2N(C)[C@H]31	6.7	> 50	
CN1c2ccccc2C(=O)N2CCc3c([nH]c4ccc(OC(=O)c5ccccc5)cc34)[C@H]21	0.75	> 50	IC50 at 72 h [3]: 0.14 µM; IC50 [4]: 0.13 µM; inhibition [5]: inactive
CCCN1c2ccccc2C(=O)N2CCc3c([nH]c4ccccc34)[C@H]21	< 0.4	< 0.4	
O=C1c2ccccc2N(Cc2ccccc2)[C@@H]2c3[nH]c4ccccc4c3CCN12	> 50	> 50	
CN1c2cccc(Cl)c2C(=O)N2CCc3c([nH]c4ccccc34)[C@H]21	8.8	< 0.4	
CN1c2ccccc2C(=O)N2CCc3c(n(C(=O)c4ccccc4)c4ccccc34)[C@H]21	> 50	> 50	
CN1c2ccc(Cl)cc2C(=O)N2CCc3c([nH]c4ccccc34)[C@H]21	1.32	1.03	
CN1c2ccccc2C(=O)N2CCc3c([nH]c4c([N+](=O)[O-])cc([N+](=O)[O-])cc34)[C@H]21	0.93	> 50	IC50 at 72 h [3]: 0.08 µM; IC50 [4]: 1.31 µM; inhibition [5]: inactive
Cc1ccc(Cn2c3c(c4ccccc42)CCN2C(=O)c4ccccc4N(C)[C@H]32)cc1	> 50	> 50	
Cn1cc(C2=C(c3cn(C4CCN(Cc5ccccn5)CC4)c4ccccc34)C(=O)NC2=O)c2ccccc21 [ENZASTAURIN]	6.59		IC50 at 72 h [3]: 1.33 µM; IC50 [4]: 2.12 µM
Cc1ccc(CN2c3ccccc3C(=O)N3CCc4c([nH]c5ccccc45)[C@H]32)cc1	11.3	> 50	
CC(=O)Oc1ccc2[nH]c3c(c2c1)CCN1C(=O)c2cccc(C)c2N(C)[C@H]31	< 0.4	< 0.4	
COc1ccc(Cn2c3c(c4ccccc42)CCN2C(=O)c4ccccc4N(C)[C@H]32)cc1	47.2	> 50	
CN1c2ccc(Br)cc2C(=O)N2CCc3c([nH]c4ccccc34)[C@H]21	2.25	3.06	
CN1c2ccc(F)cc2C(=O)N2CCc3c([nH]c4ccccc34)[C@H]21	< 0.4	< 0.4	
Nc1ccn([C@@H]2O[C@H](CO)[C@@H](O)C2(F)F)c(=O)n1 [GEMCITABINE]	1.25		IC50 at 72 h [3]: 0.04 µM; IC50 [4]: 64.5 µM; Ratio IC50 [6]: 51.61; Activity (PANC-1 [7]): inactive; Activity (PANC-1 [8]): Active; Activity [9]: 72.15%; Activity [10]: inactive
CN1c2ccccc2C(=O)N2CCc3c([nH]c4ccc(F)cc34)[C@H]21	9.32	4.71	
O=C1c2ccccc2N(Cc2ccc(C(F)(F)F)cc2)[C@@H]2c3[nH]c4ccccc4c3CCN12	31.5	50	
CN1c2cc(Cl)ccc2C(=O)N2CCc3c([nH]c4ccccc34)[C@H]21	> 50	> 50	

SMILES	IC50 (PANC-1 [1]) [µM]	IC50 at 72 h [2] [µM]	other results
CN1c2ccccc2C(=O)N2CCc3c(n(Cc4ccccc4)c4ccccc34)[C@H]21	6.88	33.7	
CC(=O)Oc1ccc2[nH]c3c(c2c1)CCN1C(=O)c2cc(F)ccc2N(C)[C@H]31	< 0.4	< 0.4	
O=C1c2ccccc2N(C(=O)C2CCCCC2)C2c3[nH]c4ccccc4c3CCN12 (single isomer, unassigned)	> 50	> 50	
COc1ccc2c(c1)N(C)[C@@H]1c3[nH]c4ccccc4c3CCN1C2=O	31.6	3.6	
CN1c2ccccc2C(=O)N2CCc3c(n(C)c4ccccc34)[C@H]21	> 50	> 50	
Cc1cccc2c1N(C)[C@@H]1c3[nH]c4ccccc4c3CCN1C2=O	< 0.4	< 0.4	
COc1ccc2[nH]c3c(c2c1)CCN1C(=O)c2ccccc2N(C)[C@H]31	11.1	10.8	
CC(=O)Oc1ccc2c(c1)c1c(n2Cc2cn(CCNC(=O)CCCC[C@@H]3SC[C@@H]4NC(=O)N[C@@H]43)nn2)C2N(CC1)C(=O)c1ccccc1N2C (some centres not stated)			Activity [11]: Active
COc1ccc2c(c1)C(=O)N1CCc3c([nH]c4ccccc34)[C@H]1N2C	1.05	3.33	
CCCCCCn1c2c(c3ccccc31)CCN1C(=O)c3ccccc3N(C)[C@H]21	13.7	37.6	
CN1c2ccccc2C(=O)N2CCc3c([nH]c4ccccc34)[C@H]21	6.59	> 50	IC50 [5]: 0.151 µM
CN1c2ccccc2C(=O)N2CCc3c([nH]c4ccc(O)cc34)[C@H]21	≤ 0.05	> 50	IC50 at 72 h [3]: 0.17 µM; IC50 [4]: 0.25 µM; inhibition [5]: inactive
CN1c2ccccc2C(=O)N2CCc3c([nH]c4ccc(Cl)cc34)[C@H]21	31.6	9.42	
Cc1ccc2[nH]c3c(c2c1)CCN1C(=O)c2ccccc2N(C)[C@H]31	29.2	> 50	
CCCOc1ccc2[nH]c3c(c2c1)CCN1C(=O)c2ccccc2N(C)[C@H]31	19	> 50	
COc1cc([C@@H]2c3cc4c(cc3[C@@H](O[C@@H]3O[C@@H]5CO[C@@H](C)O[C@H]5[C@H](O)[C@H]3O)[C@H]3COC(=O)[C@H]23)OCO4)cc(OC)c1O [ETOPOSIDE]	18.3	> 20	
CN1c2ccccc2C(=O)N2CCc3c([nH]c4ccc([N+](=O)[O-])cc34)[C@H]21	4.45	> 50	
C#CCOc1ccc2[nH]c3c(c2c1)CCN1C(=O)c2ccccc2N(C)[C@H]31	4	> 50	
Cc1ccc2c(c1)C(=O)N1CCc3c([nH]c4ccccc34)[C@H]1N2C	2.02	7.36	
COc1cccc2c1C(=O)N1CCc3c([nH]c4ccccc34)[C@H]1N2C	12.6	12.7	
CN1c2ccccc2C(=O)N2CCc3c([nH]c4ccc(OCc5ccccc5)cc34)[C@H]21	10.7	> 50	
